Consider 7 compounds from ChEMBL document CHEMBL1136689, “Inhibition of telomerase by BIBR 1532 and related analogues” (Bioorg Med Chem Lett, 2003).

For assay [1], the target named is T1, Telomerase reverse transcriptase (Homo sapiens, UniProt O14746). Description: Inhibitory activity against telomerase; ND: Not detected concentrations as high as 50 uM.
Assay [2] has as its target T1, Telomerase reverse transcriptase. Description: Inhibitory activity against telomerase; ND: not detected concentrations as high as 50 uM.
The target is the same in assay [3]. Description: Inhibitory activity against telomerase.

The structures appear in SMILES notation.

T1 sequence (O14746 whole entry): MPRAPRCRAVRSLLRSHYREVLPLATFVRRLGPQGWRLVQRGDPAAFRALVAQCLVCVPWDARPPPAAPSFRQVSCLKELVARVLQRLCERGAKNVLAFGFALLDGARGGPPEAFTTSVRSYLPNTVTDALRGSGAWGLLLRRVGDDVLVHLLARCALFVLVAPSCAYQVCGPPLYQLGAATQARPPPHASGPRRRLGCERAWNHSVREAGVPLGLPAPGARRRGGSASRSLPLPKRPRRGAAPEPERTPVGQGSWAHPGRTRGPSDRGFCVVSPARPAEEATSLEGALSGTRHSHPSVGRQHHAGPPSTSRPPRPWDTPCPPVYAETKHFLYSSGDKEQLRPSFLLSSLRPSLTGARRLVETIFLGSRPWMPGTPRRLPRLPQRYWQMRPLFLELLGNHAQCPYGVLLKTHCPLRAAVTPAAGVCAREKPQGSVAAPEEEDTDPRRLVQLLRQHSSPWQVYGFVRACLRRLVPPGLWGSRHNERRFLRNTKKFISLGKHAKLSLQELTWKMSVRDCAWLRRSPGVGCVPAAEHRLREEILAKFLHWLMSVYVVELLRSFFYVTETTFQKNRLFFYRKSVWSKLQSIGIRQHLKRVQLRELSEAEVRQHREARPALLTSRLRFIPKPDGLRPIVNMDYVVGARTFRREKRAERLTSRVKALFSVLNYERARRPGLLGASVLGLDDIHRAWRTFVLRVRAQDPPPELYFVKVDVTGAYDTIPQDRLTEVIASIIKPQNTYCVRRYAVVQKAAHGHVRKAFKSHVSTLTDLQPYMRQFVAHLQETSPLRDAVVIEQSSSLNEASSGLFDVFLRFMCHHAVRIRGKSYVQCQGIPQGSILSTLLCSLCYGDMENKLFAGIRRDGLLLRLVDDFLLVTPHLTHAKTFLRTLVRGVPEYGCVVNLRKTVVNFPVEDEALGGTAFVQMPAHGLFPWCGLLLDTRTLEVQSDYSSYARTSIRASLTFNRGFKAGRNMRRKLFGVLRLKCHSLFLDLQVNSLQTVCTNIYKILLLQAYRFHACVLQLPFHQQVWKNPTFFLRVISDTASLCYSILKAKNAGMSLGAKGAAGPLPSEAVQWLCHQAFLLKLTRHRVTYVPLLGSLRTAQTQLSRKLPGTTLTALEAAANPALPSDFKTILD

The term IC50 denotes the concentration that gives 50% inhibition. High values mean weaker potency, low ones greater potency. With `C/C(=C(/Cl)C(=O)Nc1ccccc1C(=O)O)c1ccc2ccccc2c1`, the IC50 entry in assay [1] is on record as “Inhibition not detected”.
As to `CC(/C=C(\Cl)C(=O)Nc1ccccc1C(=O)O)c1ccccc1` (configuration not stated), the IC50 result in assay [2] is “Inhibition not detected”.
`C/C(=C\C(=O)Nc1ccccc1C(=O)O)c1ccc2ccccc2c1`: in assay [3], half-maximal inhibition (IC50) was put at 5 µM.
`COc1cc(CCC(=O)Nc2ccccc2C(=O)O)ccc1O`: the IC50 result in assay [1] is given as “Inhibition not detected”.
On the same count and under the same terms, with `COc1cc(/C=C(\Cl)C(=O)Nc2ccccc2C(=O)O)ccc1OCc1ccccc1` the entry was “Inhibition not detected”; with `CC(CC(=O)Nc1ccccc1C(=O)O)c1ccc2ccccc2c1` (configuration not stated), “Inhibition not detected”.
Compound `C/C(=C/C(=O)Nc1ccccc1C(=O)O)c1ccc2ccccc2c1` yielded an IC50 in assay [3] of 5 µM.
